Assay results taken from patent US20030017520A1, “High-efficiency assay for protein mannosyl transferases” (priority 2001, published 2003).
“And” between values parts separate entries of the source, which are not always exact repeats. Identical values can stand only once. “Also recorded” adds a separate entry of the source.

Columns and labels:
[1] = tested on: protein mannosyl transferases (PMTs), crude enzyme; test: LUV-based (UPV) PMT activity assay: transfer of [3H]-mannose from Dol-P-Man to acceptor peptide; format: biochemical, S. cervisiae; settings: for inhibition of the PMT enzyme by divalent cation chelator: LUV assay conditions (FIG. 7B)
Protocol: The assays using the UPV method contained 20 mM Tris-HCl, pH 7.5, 10 mM MgCl2, 2.5 mM of the peptide, YNPTSV, 1.5 μl Dol-P-[^3H]-Man (approximately 0.9×10^6 cpm) “solubilized” in 100 μg POPC LUV's and 8 μg of crude enzyme (see Example 2) in a final volume of 40 μl. The assay samples were incubated for 2-30 minutes (varied per individual experiments) at 20° C. and at the end of the incubation the reaction was stopped by the addition of 10 μl 50 mM CuSO4 or 1 ml 0.1% TFA.
Assay reaction products were isolated on C18 cartridges (1 cc/100 mg Bond Elut) obtained from Varian [Homa et al. Prot. Exp. Purif., 6:141-48; 1995]. Isolation of reaction product by solvent extraction was carried out as described by Strahl-Bolsinger and Tanner [Eur. J. Biochem., 196:185-90; 1991].
As part of the characterization of the UPV PMT assay, other parameters such as the influence of detergents and ion dependence were also investigated. PMT assays (using LUVs as produced by the method in Example 3) were conducted by the methods of Example 5. Assays were performed at two concentrations of enzymes (5 and 10 μl). Buffers containing only CHAPS or CHAPS+50% glycerol were substituted for the standard Extraction Buffer used to solubilize the ezyme (see FIG. 6A). The effect of increased detergent concentration was investigated by the addition of increasing amounts of Extraction Buffer (see FIG. 6B).
Experiments were also conducted (as described immediately above) to determine whether PMTs are ion dependent. The control assay (10 mM Mg) contained LUVs made in buffer containing 10 mM MgCl2. All other assays contained LUVs prepared in buffer without MgCl2. […] Enzymol. Relat. Areas Mol. Biol., 52:23-175; 1981].

[2] = tested on: protein mannosyl transferases (PMTs); settings: detergent based assay; read-out: Km previously determined; cited from earlier work
acceptor peptide YNPTSV = tested on: T1, acceptor peptide YNPTSV
T1 sequence: YNPTSV

Compound: O=C(O)CN(CCN(CC(=O)O)CC(=O)O)CC(=O)O [EDTA]
- inhibition of the PMT enzyme by divalent cation chelator [1]: does not inhibit the enzyme; also recorded: appears not to inhibit the enzyme

Compound: O=C(O)CN(CCOCCOCCN(CC(=O)O)CC(=O)O)CC(=O)O [EGTA]
- inhibition of the PMT enzyme by divalent cation chelator [1]: equally ineffective

Compound: c1cnc2c(c1)ccc1cccnc12 [orthophenanthroline]
- inhibition of the PMT enzyme by divalent cation chelator [1]: equally ineffective

Compound: YNPTSV (synthesized acceptor peptide) [standard synthetic acceptor peptide containing an acceptor site for PMTs]
- Vmax ([1]; Dol-P-Man in POPC LUVs, crude enzyme preparation): approximately 7.25 pmol min.^−1 mg protein^−1
- Km ([1]; Dol-P-Man in POPC LUVs, crude enzyme preparation (yeast microsomal lysate), read-out: apparent Km for the acceptor peptide): 1500 µM and ~1000 µM
- Km [2]: 3300 µM

Compound: protein mannosyl transferases (PMTs), crude detergent extract of S. cervisiae (strain BY4743) microsomal membranes
- Vmax (LUV-based PMT enzyme activity assay, crude enzyme) (acceptor peptide YNPTSV): Vmax was determined to be approximately 7.25 pmol min.^-1 mg protein^-1
- apparent Km (LUV-based PMT enzyme activity assay, crude enzyme) (acceptor peptide YNPTSV): the apparent Km (using crude enzyme preparation) was determined to be approximately 1 mM
- apparent Km (LUV-based PMT enzyme activity assay, crude yeast microsomal lysate) (acceptor peptide YNPTSV): an apparent Km of 1.5 mM, for the acceptor peptide YNPTSV
